{
  "source": "patent US20260000351A1",
  "about": "“NON-INVASIVE METHODS OF MEASURING THE DEGREE OF CELLULAR ENERGY METABOLISM” (AMAZON TECHNOLOGIES, INC., priority 2023, published 2026)",
  "assay_type_in_all_cases": "cell-based",
  "key": {"[1]": {"test_system": "Jurkat T cells", "assay": "Radio frequency sensor device measurement of cellular energy metabolism in Jurkat T cell suspension (Example 1)", "details": "for radio frequency peak in magnitude at 64 MHz: final concentration 200 mg/dl in low D-glucose DMEM, about 8 h", "procedure": "Jurkat T cells were obtained from American Type Culture Collection (ATCC) (#TIB-152) and maintained in high D-Glucose Dulbecco's Modified Eagle Medium (DMEM) (THERMO FISHER SCIENTIFIC INC., #10565042, 17.5 mM/315 mg/dl D-glucose) supplemented with 10% fetal bovine serum (FBS, THERMO FISHER SCIENTIFIC INC., #16140071), penicillin/streptomycin (Pen/Strep), beta-Mercaptoethanol (b-ME) in a 37° C. humidified incubator, 5% CO2. At time point 0:00 (hr.: min.), Jurkat T cells (3×10^9) were suspended in three separate solutions of low D-glucose DMEM (THERMO FISHER SCIENTIFIC INC., #10565042, 5.5 mM (100 mg/dl D-glucose) supplemented with fetal bovine serum (10% v/v, THERMO FISHER SCIENTIFIC INC. #16140071), penicillin/streptomycin (Pen/Strep), beta-mercaptoethanol (20 ml of media, 5×10^7 cells per mL each) in tissue culture dishes (10 cm). The cell suspension was placed in an incubator at 37° C. at maximum humidity, carbon dioxide concentration of 5%. Cells were mixed continuously on an orbital shaker (60 rpm). Following 60 minutes of incubation for equilibration, a sensor device of this disclosure was placed in each solution. To the resulting solutions were added 200 μl of media containing 100× D-glucose (e.g., to a final concentration of 200 mg/dl), control media (identical media, but containing low D-glucose (5.5 mM, 100 mg/dl)), and media containing 100× 2-deoxy-D-glucose (identical media, but replacing D-glucose with 2-deoxy-D-glucose at a final concentration of e.g., 200 mg/dl). The radio frequency was detected at 64MHz with the sensor device over the course of approximately 8 h."}, "[2]": {"test_system": "Jurkat T cells", "assay": "Radio frequency monitoring device measurement at 64 MHz in Jurkat T cell suspensions (Example 5)", "details": "for net change in radio frequency magnitude (plain medium subtracted as background): 64 MHz", "procedure": "The degree of cellular energy metabolism was monitored by radio frequency in Jurkat T cell suspensions to compare to direct intracellular ATP measurement of Example 4. Jurkat T cell suspensions were maintained as in Example 4. A radio frequency monitoring device was placed in the cell culture and monitored at 64 MHz frequency as a function of time. Cells were stimulated by addition of (a) D-glucose (180 mg/dl final concentration in DMEM), (b) 2-deoxy-D-glucose (2DG, 180 mg/dl final concentration in DMEM), (c) D-glucose (180 mg/dl final concentration) and BAY-876 (a glucose transporter 1 inhibitor, 5 μM final concentration), and (d) DMEM with low D-glucose (5.5 mM, 100 mg/dl, ‘plain medium’). All stimulations were conducted with the same volume of liquid."}, "[3]": {"test_system": "Jurkat T cells", "assay": "Luciferase-based assay of intracellular ATP concentration (CELLTITER-GLO 2.0)", "details": "D-glucose 15.5 mM (280 mg/dl final) versus low D-glucose 5.5 mM", "procedure": "Intracellular ATP concentrations were assessed using a luciferase-based assay to determine the rate of ATP production following addition of glucose. Jurkat T cells (1×10^7 cells per well in low D-glucose DMEM (100 μl, 5.5 mM, 100 mg/dl D-glucose)) were aliquoted into flat-bottom 96-well plates. Cells were stimulated with DMEM either containing D-glucose (15.5 mM, 280 mg/dl final solution) or low D-glucose (5.5 mM, 100 mg/dl), an effective difference of 10 mM (180 mg/dl) glucose, at time point 0 min. Cells were quantitatively removed from the incubation plate. An aliquot of cell suspension (50 μl) was transferred onto frozen CELLTITER-GLO® 2.0 (PROMEGA CO.) assay reagent on dry ice. The resulting mixture was thawed, and the ATP concentration measured via light emission in a 96-well plate-compatible luminometer. The resulting curve of luciferase activity in relative luminescence units (RLUs) over time (min. following stimulation) is shown in FIG. 7. […] Glucose transport is rapid as indicated by the rapid increase of ATP concentration following addition of D-glucose."}, "[4]": {"details": "180 mg/dl final concentration in DMEM"}},
  "data": [
    {"smiles": "O=CC[C@@H](O)[C@H](O)[C@H](O)CO", "note": "[2-deoxy-D-glucose]", "values": [
      {"measurement": "radio frequency peak in magnitude at 64 MHz", "setting": "[1]", "result": "no detectable peak"},
      {"measurement": "magnitude at 64 MHz over time (curve shape)", "setting": "[2]; [4]", "result": "an initial peak, similar to D-glucose, the magnitude at 64 MHz quickly adopts a similar linear decline"},
      {"measurement": "net change in radio frequency magnitude (plain medium subtracted as background)", "setting": "[2]; [4]", "result": "only an initial net increase"}
    ]},
    {"smiles": "Cc1c(NC(=O)c2cc(C(N)=O)nc3cc(F)ccc23)c(C(F)(F)F)nn1Cc1ccc(C#N)cc1", "note": "[BAY-876]", "values": [
      {"measurement": "magnitude at 64 MHz over time (curve shape)", "setting": "[2]; BAY-876 5 μM final with D-glucose 180 mg/dl final", "result": "a smooth decline becoming linear over time"}
    ]},
    {"smiles": "O=C[C@H](O)[C@@H](O)[C@H](O)[C@H](O)CO", "note": "[D-glucose]", "values": [
      {"measurement": "difference in luminescence (net ATP concentration) over time", "setting": "[3]", "result": "an increase in net ATP concentration followed by a slower decrease in net ATP concentration"},
      {"measurement": "time of apex of radio frequency peak", "setting": "[1]; D-glucose 200 mg/dl final", "result": "approximately 4 h"},
      {"measurement": "radio frequency peak in magnitude at 64 MHz", "setting": "[1]", "result": "a broad peak was observed"},
      {"measurement": "magnitude at 64 MHz over time (curve shape)", "setting": "[2]; [4]", "result": "both a peak shortly after addition of stimulus, and a more gradual decline"},
      {"measurement": "net change in radio frequency magnitude (plain medium subtracted as background)", "setting": "[2]; [4]", "result": "an initial net increase in magnitude followed by a slow net decrease"}
    ]}
  ]
}
